Columns and labels:
Assay type in all cases: toxicity, cell-based
HEK-293T = assay: Incucyte cell viability with HEK293T; conditions: human, 10 µM, compound concentration 10 uM
Fibroblast = assay: Incucyte cell viability with human fibroblast; conditions: 10 µM, compound concentration 10 uM
U2OS = assay: Incucyte cell viability with U2OS; conditions: human, 10 µM, compound concentration 10 uM
Further: unitless GR value; below 1 slowed growth and below 0 cell loss.

| Compound | Growth Rate (HEK-293T; 6 h, replicate number 1) | Growth Rate (HEK-293T; 6 h, replicate number 2) | Growth Rate (HEK-293T; 12 h, replicate number 1) | Growth Rate (HEK-293T; 12 h, replicate number 2) | Growth Rate (HEK-293T; 18 h, replicate number 1) | Growth Rate (HEK-293T; 18 h, replicate number 2) | Growth Rate (HEK-293T; 24 h, replicate number 1) | Growth Rate (HEK-293T; 24 h, replicate number 2) | Growth Rate (Fibroblast; 6 h, replicate number 1) | Growth Rate (Fibroblast; 12 h, replicate number 2) | Growth Rate (Fibroblast; 18 h, replicate number 1) | Growth Rate (Fibroblast; 24 h, replicate number 1) | Growth Rate (U2OS; 6 h, replicate number 1) | Growth Rate (U2OS; 12 h, replicate number 2) | Growth Rate (U2OS; 24 h, replicate number 1) | Growth Rate (Fibroblast; 24 h, replicate number 2) | Growth Rate (U2OS; 0 h, replicate number 1) | Growth Rate (U2OS; 18 h, replicate number 2) | Growth Rate (U2OS; 24 h, replicate number 2) | Growth Rate (Fibroblast; 0 h, replicate number 1) | further results |
| --- | --- | --- | --- | --- | --- | --- | --- | --- | --- | --- | --- | --- | --- | --- | --- | --- | --- | --- | --- | --- | --- |
| Cn1nc(-c2ccc(C(N)=O)cc2)c2ccccc2c1=O | 0.11 | 0.45 | 0.75 | 0.4 | 0.73 | 0.55 | 0.79 | 0.74 | 0.25 | 0.65 | 0.84 | 1 | 0.58 | 0.97 | 0.96 | – | – | – | – | – | Growth Rate (Fibroblast; 12 h, replicate number 1): 0.99; Growth Rate (U2OS; 0 h, replicate number 2): 0.98; Growth Rate (U2OS; 12 h, replicate number 1): 0.8; Growth Rate (U2OS; 18 h, replicate number 1): 0.93 |
| COc1cc([N+](=O)[O-])ccc1NC(=O)c1ccccc1O | -0.49 | -0.12 | -0.12 | -0.05 | -0.01 | -0.02 | 0.08 | -0.01 | -0.98 | 0.57 | – | – | 0.2 | 0.63 | 0.48 | 0.64 | 0.1 | 0.46 | 0.55 | – | Growth Rate (HEK-293T; 0 h, replicate number 2): 0.91; Growth Rate (Fibroblast; 0 h, replicate number 2): 0.04; Growth Rate (Fibroblast; 18 h, replicate number 2): 0.65; Growth Rate (U2OS; 0 h, replicate number 2): -0.67; Growth Rate (U2OS; 6 h, replicate number 2): 0.94; Growth Rate (U2OS; 12 h, replicate number 1): 0.27; Growth Rate (U2OS; 18 h, replicate number 1): 0.4 |
| Nc1nc(-c2nn(Cc3ccccc3F)c3ncccc23)ncc1C1CC1 | – | – | – | – | – | – | – | – | 0.35 | – | 0.69 | 0.73 | 0.69 | – | 0.68 | 0.8 | – | 0.87 | 0.71 | – | Growth Rate (HEK-293T; 0 h, replicate number 2): 0.14; Growth Rate (Fibroblast; 0 h, replicate number 2): -0.93 |
| CC1(C)CCC[C@]2(C)[C@@H](C=O)C(C=O)=CC[C@@H]12 [POLYGODIAL] | -0.32 | 0.55 | 0.22 | 0.7 | 0.52 | 0.81 | 0.8 | 0.87 | – | 0.42 | -0.77 | 0.41 | – | 0.57 | – | 0.73 | 0.45 | 0.76 | 0.88 | – | Growth Rate (Fibroblast; 6 h, replicate number 2): -1; Growth Rate (Fibroblast; 18 h, replicate number 2): 0.83; Growth Rate (U2OS; 0 h, replicate number 2): -0.79; Growth Rate (U2OS; 6 h, replicate number 2): 0.73 |
| CNC1(C)C2CCC(C2)C1(C)C.Cl (configuration not stated) [MECAMYLAMINE HYDROCHLORIDE] | 0.95 | 0.89 | 0.74 | 0.84 | – | 0.89 | – | 0.91 | 0.44 | 0.66 | 0.43 | – | 1 | 0.97 | 0.98 | – | 0.92 | 0.64 | 0.73 | 0.75 | Growth Rate (Fibroblast; 0 h, replicate number 2): 0.92; Growth Rate (Fibroblast; 12 h, replicate number 1): -1; Growth Rate (U2OS; 0 h, replicate number 2): -0.76; Growth Rate (U2OS; 6 h, replicate number 2): 0.24; Growth Rate (U2OS; 18 h, replicate number 1): 0.93 |
| COc1cc2ncnc(N[C@H](C)c3ccccc3)c2cc1OC1CCN(S(C)(=O)=O)CC1.Cl | – | – | – | 0.89 | – | – | – | – | – | 0.61 | – | – | 0.77 | – | 0.74 | – | 0.65 | – | – | 0.4 | Growth Rate (HEK-293T; 0 h, replicate number 1): 0.37; Growth Rate (HEK-293T; 0 h, replicate number 2): -0.04; Growth Rate (Fibroblast; 6 h, replicate number 2): 0.39; Growth Rate (U2OS; 12 h, replicate number 1): 0.89; Growth Rate (U2OS; 18 h, replicate number 1): 0.8 |
| O=c1cc(-c2cc(F)c(Cl)nc2Cl)[nH]c2c(-c3ccccc3)c(C(F)(F)F)nn12 | – | 0.52 | – | 0.74 | 0.93 | 0.98 | 0.8 | 0.94 | – | – | 0.57 | 0.39 | 0.78 | – | – | 1 | – | -0.41 | – | -0.22 | Growth Rate (HEK-293T; 0 h, replicate number 1): 0.89; Growth Rate (Fibroblast; 12 h, replicate number 1): -0.36 |
| N=C(N)NCCC[C@H](NC(=O)C(c1ccccc1)c1ccccc1)C(=O)NCc1ccc(CNC(N)=O)cc1.O=C(O)C(F)(F)F | – | – | – | – | – | – | – | – | – | 0.52 | – | 0.9 | 0.97 | 0.88 | 0.96 | 0.58 | – | – | – | -1 | Growth Rate (HEK-293T; 0 h, replicate number 1): 0.26; Growth Rate (Fibroblast; 6 h, replicate number 2): -0.57; Growth Rate (Fibroblast; 18 h, replicate number 2): 0.75 |
| CC(C)[C@H](CO)Nc1nc(Nc2ccc(C(=O)O)c(Cl)c2)c2ncn(C(C)C)c2n1 [PURVALANOL B] | – | – | – | – | 0.9 | – | 1 | – | – | – | 0.88 | – | – | 0.95 | – | – | -0.96 | – | – | -0.93 | Growth Rate (U2OS; 0 h, replicate number 2): 0.8; Growth Rate (U2OS; 6 h, replicate number 2): 0.56 |
| Cc1cc2nc(N3CCC(C(=O)NC4CCCC4)CC3)n(C(C)C)c2cc1C | 0.3 | – | 0.77 | – | 0.97 | – | 0.88 | – | 0.17 | 0.74 | 0.48 | 0.4 | – | 0.47 | 0.95 | 0.78 | – | 0.67 | 0.8 | -1 | Growth Rate (Fibroblast; 12 h, replicate number 1): 0.26; Growth Rate (Fibroblast; 18 h, replicate number 2): 0.7; Growth Rate (U2OS; 0 h, replicate number 2): -0.6; Growth Rate (U2OS; 6 h, replicate number 2): 0.39; Growth Rate (U2OS; 12 h, replicate number 1): 0.79 |
| Fc1ccc(-c2nc(-c3ccc4ccccc4c3F)[nH]c2-c2ccncc2)cc1 | 0.81 | 0.42 | 0.77 | 0.57 | 0.7 | 0.41 | 0.67 | 0.47 | 0.58 | 0.65 | 0.61 | 0.76 | – | – | – | – | -1 | – | 0.94 | – | Growth Rate (Fibroblast; 6 h, replicate number 2): -0.01; Growth Rate (Fibroblast; 12 h, replicate number 1): 0.47; Growth Rate (Fibroblast; 18 h, replicate number 2): 0.8 |
| CO[C@H]1CC[C@H](N(c2cc(F)c(Oc3ncc(Cn4nccn4)cc3C(F)(F)F)cc2C(=O)O)C(=O)[C@H]2CC[C@H](C)CC2)CC1 | – | – | – | – | – | – | – | – | 0.07 | – | 0.76 | 0.77 | 0.6 | 0.82 | – | 0.67 | 0.66 | 1 | 0.87 | -1 | Growth Rate (HEK-293T; 0 h, replicate number 1): 0.27; Growth Rate (HEK-293T; 0 h, replicate number 2): -0.25; Growth Rate (Fibroblast; 6 h, replicate number 2): -0.41; Growth Rate (U2OS; 6 h, replicate number 2): 0.76 |
